The values below come from patent US20050249714A1, “Method of using secretin and compositions made therefrom for the treatment of autism and other neurological, behavioral and immunological disorders” (Repligen Corporation, a Massachusetts corporation, priority 1997, published 2005).

No end group written: not given here.

The test system of assay [1] is patient, a child with symptoms of autism. Description: Intravenous secretin infusion in a child with symptoms of autism (Example 1). It counts as in vivo, human. As for the experimental part:
The present invention will be better understood from the following examples which are given by way of illustration and not by way of limitation. The patient, the same in both examples, is a child with symptoms of autism.
When the patient was […], the secretin was administered by way of an infusion as part of an upper gastrointestinal endoscopy. The secretin was used in this diagnostic procedure at the request of the patient's parents, one of which is an inventor of the present invention. The secretin used in this procedure is known as Secretin-Ferring available from Ferring Laboratories, Inc., Suffern, N.Y. (See Appendix A). The secretin was dissolved in a […] solution of sodium chloride and administered in a dosage of 2 clinical units (CU) per kilogram (kg) body weight by intravenous injection over one minute. (I.E. 30 IU IV for approximately 15 kilograms of body weight.)
The diagnostic tests performed on the patient during this procedure also indicated gastric inflammation. […] The following Table I summarizes the improvements observed in the patient within 3 weeks after the infusion of secretin.
Biomedical changes were also measured in the patient.
At the request of the patient's parents, a second infusion of secretin was performed about 9 months after the first infusion, and a third infusion of secretin was performed about three months after the second infusion.

Assay [2] shares this test system. Description: Daily transdermal secretin with DMSO in the same patient (Example 2). The note with it: about 15 CU daily. The assay is classed as in vivo, human. As for the experimental part:
At the time of this treatment, the patient was […]. Secretin was administered transdermally using pharmaceutical grade dimethyl sulfoxide (DMSO) (generally 99.9% pure) available from Clinic Service Co., Box 2512, Hemet Calif. 92543. The secretin (Secretin-Ferring) was administered daily in a dosage of about 75 CU over a five day period (i.e., about 15 CU daily) For each treatment, about 4 drops of DMSO were placed onto the skin of the patient, about 15 CU of the crystalline secretin was placed onto the DMSO, and the composition was rubbed into the skin.

Assay [3] relates to abnormal opioid peptides. The note with it: autistic children responding to casein free and gluten free diet, after the secretin infusion; cited from earlier work.

In the case of “secretin (HSDGTFTSELSRLRDSARLQRLLQGLV-NH2; ends and bridges not checked; UniProt P63298 33-59, looked up) [polypeptide hormone secreted by the mucosa of the duodenum and upper jejunum; used as Secretin-Ferring from Ferring Laboratories]”, in assay [1] (after the first infusion), the “time at which the rate of the patient's progress appeared to decrease” value is given as “about 5 weeks”. Also, in assay [1] (after the treatment), the “perfusion of the right posterior parietal and right temporal lobes (SPECT scan)” value is listed as “improved”. Moreover, the “results of second and third infusions” value in assay [1] (second infusion about 9 months after the first, third about three months after the second) is reported as “achieved the same results”. The imitation of commands result in assay [1] (within 3 weeks after infusion, before: did not imitate) is given as “Will imitate almost any multi-step command”. Also, in assay [1] (within 3 weeks after infusion, before: limited diet preferences), the diet preferences entry was “No Change”. In addition, the “connections made between language and objects” value in assay [1] (within 3 weeks after infusion, before: no apparent connections) is reported as “Many connections made between new language”. The interaction with videos result in assay [1] (within 3 weeks after infusion, before: watch videos) is on record as “Now, gets “involved” interactively with their videos”. Besides, in assay [1] (within days after the administration, no change in diet), the “chronic abnormal bowel movements” value is “became normal”. For the same substance, the overall improvements result in assay [2] is “even more dramatic and significant improvements”. In addition, in assay [3], the abnormal opioid peptides entry was “the peptides disappeared”.
